Reference: the supplement of paper PMC12463676, “Small-molecule dissolution of stress granules by redox modulation benefits ALS models” (Nature Chemical Biology, 2025)

Assays:
[1] = compound: NC(=O)CCCCC1CCSS1 [lipoamide]; assay: thermal stability z-score vs DMSO; higher = more thermally stabilized by treatment; conditions: HeLa, lipoamide concentration 100 µM
Procedure: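 Cellular thermal proteome profiling in HeLa cells. Cells were treated with 100 µM lipoamide for 1 h, with or without 1 mM arsenate for a further 1 h, then heated to ten temperatures (37-66.3 °C), and soluble protein was quantified by TMT mass spectrometry relative to 0.1% DMSO controls. The thermal stability score (sum of log2 fold changes minus the abundance score) was transformed to a z-score; mean of n = 3 experiments.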

[2] = compound: O=[As]([O-])(O)O.[K+] [potassium arsenate]; assay: as above; conditions: HeLa; arsenate concentration 1 mM
Procedure: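 Cellular thermal proteome profiling in HeLa cells treated with 1 mM arsenate for 1 h (DMSO pretreatment), heated to ten temperatures (37-66.3 °C). Soluble protein was quantified by TMT mass spectrometry relative to DMSO controls; the thermal stability score was transformed to a z-score; mean of n = 3 experiments.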

[3] = arsenate co-treatment: 1 mM arsenate 1 h
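Note: each temperature applied for 3 min, abundance score taken as mean log2 fold change at the two lowest temperatures, z-score obtained by mean subtraction and division by SD.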

Chain of UniProt Q03393 (Q03393 whole entry): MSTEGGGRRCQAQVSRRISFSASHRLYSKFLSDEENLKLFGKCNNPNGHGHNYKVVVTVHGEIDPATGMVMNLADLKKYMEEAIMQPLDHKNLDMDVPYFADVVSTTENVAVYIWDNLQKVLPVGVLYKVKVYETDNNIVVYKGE
Chain of UniProt Q9H3S7 (Q9H3S7 whole entry): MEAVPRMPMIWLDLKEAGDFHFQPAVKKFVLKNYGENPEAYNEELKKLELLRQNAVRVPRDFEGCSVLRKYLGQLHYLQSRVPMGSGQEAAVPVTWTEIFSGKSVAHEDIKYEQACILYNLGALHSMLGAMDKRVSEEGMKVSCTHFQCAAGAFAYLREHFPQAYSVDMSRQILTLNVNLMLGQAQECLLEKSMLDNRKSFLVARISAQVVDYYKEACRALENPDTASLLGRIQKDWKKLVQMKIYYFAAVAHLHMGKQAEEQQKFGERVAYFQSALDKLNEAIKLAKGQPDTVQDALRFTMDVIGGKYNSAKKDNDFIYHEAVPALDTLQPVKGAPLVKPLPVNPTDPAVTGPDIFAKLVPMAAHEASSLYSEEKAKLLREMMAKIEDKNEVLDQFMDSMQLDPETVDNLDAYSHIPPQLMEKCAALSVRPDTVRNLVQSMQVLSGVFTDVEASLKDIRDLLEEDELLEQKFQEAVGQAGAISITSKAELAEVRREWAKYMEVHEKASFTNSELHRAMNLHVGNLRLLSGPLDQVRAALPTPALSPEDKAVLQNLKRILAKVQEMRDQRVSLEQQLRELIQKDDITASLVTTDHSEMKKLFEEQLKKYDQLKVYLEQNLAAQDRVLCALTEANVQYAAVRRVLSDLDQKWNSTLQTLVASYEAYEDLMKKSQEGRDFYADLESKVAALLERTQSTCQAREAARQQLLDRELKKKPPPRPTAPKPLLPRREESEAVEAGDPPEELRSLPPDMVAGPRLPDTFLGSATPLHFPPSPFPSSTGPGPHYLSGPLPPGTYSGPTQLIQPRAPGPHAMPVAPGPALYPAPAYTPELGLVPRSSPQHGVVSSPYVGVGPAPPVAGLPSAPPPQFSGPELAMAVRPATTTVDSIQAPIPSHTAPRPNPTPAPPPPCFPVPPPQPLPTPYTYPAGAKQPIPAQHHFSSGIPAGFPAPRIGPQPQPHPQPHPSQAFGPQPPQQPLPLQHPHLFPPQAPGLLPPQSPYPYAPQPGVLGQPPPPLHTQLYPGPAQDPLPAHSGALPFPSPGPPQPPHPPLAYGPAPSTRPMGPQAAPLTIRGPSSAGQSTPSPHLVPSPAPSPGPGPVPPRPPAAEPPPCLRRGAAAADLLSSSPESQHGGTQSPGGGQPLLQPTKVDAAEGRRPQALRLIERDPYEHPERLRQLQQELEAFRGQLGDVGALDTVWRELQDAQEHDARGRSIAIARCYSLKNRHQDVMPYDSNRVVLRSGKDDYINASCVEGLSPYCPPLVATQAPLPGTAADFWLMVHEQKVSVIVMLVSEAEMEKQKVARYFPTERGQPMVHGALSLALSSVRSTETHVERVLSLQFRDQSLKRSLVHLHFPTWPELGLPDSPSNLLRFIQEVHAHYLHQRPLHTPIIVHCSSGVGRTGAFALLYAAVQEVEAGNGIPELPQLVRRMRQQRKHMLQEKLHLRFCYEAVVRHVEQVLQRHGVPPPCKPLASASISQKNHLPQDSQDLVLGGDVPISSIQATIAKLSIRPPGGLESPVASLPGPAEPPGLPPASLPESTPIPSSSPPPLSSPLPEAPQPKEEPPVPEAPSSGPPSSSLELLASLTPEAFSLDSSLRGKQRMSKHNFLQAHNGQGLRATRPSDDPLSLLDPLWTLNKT
Chain of UniProt Q86Y79 (Q86Y79 whole entry): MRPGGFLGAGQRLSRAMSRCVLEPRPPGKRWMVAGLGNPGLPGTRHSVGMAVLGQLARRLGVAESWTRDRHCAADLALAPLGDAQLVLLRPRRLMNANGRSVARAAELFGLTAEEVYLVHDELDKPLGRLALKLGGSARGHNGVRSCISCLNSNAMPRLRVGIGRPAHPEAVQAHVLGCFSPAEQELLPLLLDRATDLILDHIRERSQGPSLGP
Chain of UniProt O95997 (O95997 whole entry): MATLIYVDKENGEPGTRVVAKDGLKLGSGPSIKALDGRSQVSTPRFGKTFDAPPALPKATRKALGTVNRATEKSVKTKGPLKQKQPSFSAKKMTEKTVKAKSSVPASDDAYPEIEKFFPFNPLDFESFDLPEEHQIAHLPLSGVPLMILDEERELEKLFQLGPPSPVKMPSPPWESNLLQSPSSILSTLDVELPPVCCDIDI
Chain of UniProt P43378 (P43378 whole entry): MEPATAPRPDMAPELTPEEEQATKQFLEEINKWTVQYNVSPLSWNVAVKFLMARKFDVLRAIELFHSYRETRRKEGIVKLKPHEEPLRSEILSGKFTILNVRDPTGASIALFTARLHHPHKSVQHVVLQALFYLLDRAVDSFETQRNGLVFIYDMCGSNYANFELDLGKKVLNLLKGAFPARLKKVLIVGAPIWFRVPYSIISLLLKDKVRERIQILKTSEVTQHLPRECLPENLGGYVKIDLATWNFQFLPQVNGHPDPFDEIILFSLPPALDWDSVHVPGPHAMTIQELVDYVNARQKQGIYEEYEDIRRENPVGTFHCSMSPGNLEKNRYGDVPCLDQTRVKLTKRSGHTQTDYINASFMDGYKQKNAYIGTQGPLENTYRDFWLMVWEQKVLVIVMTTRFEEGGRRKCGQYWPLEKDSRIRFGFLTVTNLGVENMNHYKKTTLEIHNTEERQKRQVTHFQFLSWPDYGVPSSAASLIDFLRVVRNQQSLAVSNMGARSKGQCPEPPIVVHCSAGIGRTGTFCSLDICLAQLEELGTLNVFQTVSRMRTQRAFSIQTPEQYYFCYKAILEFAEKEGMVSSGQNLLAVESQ
Chain of UniProt Q14671 (Q14671 whole entry): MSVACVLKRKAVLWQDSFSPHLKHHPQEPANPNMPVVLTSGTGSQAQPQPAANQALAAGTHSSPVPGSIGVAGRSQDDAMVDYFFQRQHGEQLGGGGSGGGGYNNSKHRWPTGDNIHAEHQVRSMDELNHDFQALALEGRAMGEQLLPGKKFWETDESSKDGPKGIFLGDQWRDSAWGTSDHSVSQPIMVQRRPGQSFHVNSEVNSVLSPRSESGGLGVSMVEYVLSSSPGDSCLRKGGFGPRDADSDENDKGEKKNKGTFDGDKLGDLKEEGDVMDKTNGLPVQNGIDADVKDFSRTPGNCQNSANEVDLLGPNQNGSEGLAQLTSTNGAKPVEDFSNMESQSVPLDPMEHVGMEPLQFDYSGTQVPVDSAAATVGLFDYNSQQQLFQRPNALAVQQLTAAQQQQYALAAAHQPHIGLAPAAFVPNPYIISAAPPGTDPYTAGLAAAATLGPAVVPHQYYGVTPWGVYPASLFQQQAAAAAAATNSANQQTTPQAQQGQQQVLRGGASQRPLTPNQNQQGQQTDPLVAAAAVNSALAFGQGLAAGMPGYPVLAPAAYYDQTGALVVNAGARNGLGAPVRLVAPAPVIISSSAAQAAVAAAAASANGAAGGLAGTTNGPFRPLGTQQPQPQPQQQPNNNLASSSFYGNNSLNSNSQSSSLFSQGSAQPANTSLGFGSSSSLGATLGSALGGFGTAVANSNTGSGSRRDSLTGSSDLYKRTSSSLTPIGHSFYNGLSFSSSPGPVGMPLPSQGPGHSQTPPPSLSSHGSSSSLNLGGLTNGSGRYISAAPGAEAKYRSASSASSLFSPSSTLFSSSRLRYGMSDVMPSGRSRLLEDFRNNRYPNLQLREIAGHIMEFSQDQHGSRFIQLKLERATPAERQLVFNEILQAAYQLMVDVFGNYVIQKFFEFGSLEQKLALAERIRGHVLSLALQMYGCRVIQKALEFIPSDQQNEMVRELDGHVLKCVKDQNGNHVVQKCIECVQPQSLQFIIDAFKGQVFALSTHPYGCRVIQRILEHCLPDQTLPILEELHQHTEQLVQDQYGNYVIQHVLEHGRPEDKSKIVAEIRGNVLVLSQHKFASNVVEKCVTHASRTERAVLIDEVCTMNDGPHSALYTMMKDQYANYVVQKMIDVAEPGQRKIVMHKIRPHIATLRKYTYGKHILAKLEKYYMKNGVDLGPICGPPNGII
Chain of UniProt O95758 (O95758 whole entry): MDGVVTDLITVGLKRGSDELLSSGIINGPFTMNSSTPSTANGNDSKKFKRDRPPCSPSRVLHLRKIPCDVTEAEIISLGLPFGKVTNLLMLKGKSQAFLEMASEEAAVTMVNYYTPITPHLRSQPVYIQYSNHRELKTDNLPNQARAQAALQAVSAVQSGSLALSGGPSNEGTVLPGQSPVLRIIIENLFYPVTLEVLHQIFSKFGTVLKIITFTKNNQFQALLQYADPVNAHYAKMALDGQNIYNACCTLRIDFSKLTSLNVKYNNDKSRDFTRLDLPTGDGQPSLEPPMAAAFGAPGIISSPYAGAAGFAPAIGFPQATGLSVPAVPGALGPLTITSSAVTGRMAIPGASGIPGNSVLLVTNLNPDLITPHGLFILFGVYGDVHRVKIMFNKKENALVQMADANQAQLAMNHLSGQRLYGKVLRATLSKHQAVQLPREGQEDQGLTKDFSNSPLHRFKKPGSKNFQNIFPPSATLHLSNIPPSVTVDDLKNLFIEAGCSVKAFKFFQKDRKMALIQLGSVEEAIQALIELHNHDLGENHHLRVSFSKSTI
Chain of UniProt P15151 (P15151 whole entry): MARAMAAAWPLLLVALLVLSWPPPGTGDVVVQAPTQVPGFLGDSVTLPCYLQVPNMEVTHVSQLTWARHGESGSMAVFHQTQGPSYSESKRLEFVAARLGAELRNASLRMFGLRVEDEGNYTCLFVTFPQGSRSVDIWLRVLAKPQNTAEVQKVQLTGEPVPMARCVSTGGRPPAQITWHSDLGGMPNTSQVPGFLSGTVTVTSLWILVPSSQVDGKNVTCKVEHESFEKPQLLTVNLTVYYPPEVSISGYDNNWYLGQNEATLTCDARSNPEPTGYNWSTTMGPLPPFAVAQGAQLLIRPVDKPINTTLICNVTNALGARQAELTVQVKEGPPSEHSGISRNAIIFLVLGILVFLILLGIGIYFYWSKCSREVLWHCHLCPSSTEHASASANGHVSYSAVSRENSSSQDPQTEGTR

| Target | thermal stability z-score [1, 3] | thermal stability z-score ([1]; arsenate co-treatment: none) | thermal stability z-score [2] |
| --- | --- | --- | --- |
| PSPC1 (UniProt Q8WXF1) | -0.0313 | 0.551 | 0.449 |
| PSPH (UniProt P78330) | 0.359 | 0.393 | 0.056 |
| PTAR1 (UniProt Q7Z6K3) | 0.548 | 0.408 | 0.1 |
| PTBP1 (UniProt P26599) | 1.1 | 1.82 | 0.184 |
| PTBP2 (UniProt Q9UKA9) | -0.138 | -0.14 | -0.161 |
| PTBP3 (UniProt O95758) | -0.713 | 0.0298 | -0.772 |
| PTCD2 (UniProt Q8WV60) | 0.00948 | -0.0661 | -0.0322 |
| PTCD3 (UniProt Q96EY7) | 0.272 | 0.525 | -0.0411 |
| PTDSS1 (UniProt P48651) | -1.63 | -1.23 | -0.375 |
| PTDSS2 (UniProt Q9BVG9) | 0.2 | -0.0317 | -0.0291 |
| PTEN (UniProt P60484) | -0.0735 | -0.0591 | -0.185 |
| PTER (UniProt Q96BW5) | -0.116 | -0.966 | -0.311 |
| PTGES2 (UniProt Q9H7Z7) | -0.199 | 0.0528 | 0.178 |
| PTGES3 (UniProt Q15185) | 0.0467 | 0.127 | -0.454 |
| PTGFRN (UniProt Q9P2B2) | 0.216 | 0.0155 | 0.0412 |
| PTGR1 (UniProt Q14914) | 1.49 | 1.67 | 0.672 |
| PTGR2 (UniProt Q8N8N7) | 2.64 | 1.03 | 0.744 |
| PTGS2 (UniProt P35354) | -0.361 | 0.261 | 0.269 |
| PTK2 (UniProt Q05397) | 0.189 | 0.122 | -0.0048 |
| PTMA (UniProt P06454) | 1.3 | 1.23 | 0.425 |
| PTMS (UniProt P20962) | 0.606 | 0.808 | -0.629 |
| PTP4A1 (UniProt Q93096) | 1.33 | 1.25 | 0.626 |
| PTP4A2 (UniProt Q12974) | 1.78 | 1.15 | 0.861 |
| PTPMT1 (UniProt Q8WUK0) | 0.619 | 0.326 | 0.767 |
| PTPN1 (UniProt P18031) | -1.02 | -0.578 | 0.228 |
| PTPN2 (UniProt P17706) | 0.0491 | 0.308 | 0.95 |
| PTPN3 (UniProt P26045) | -0.085 | -0.294 | -0.31 |
| PTPN6 (UniProt P29350) | -0.0229 | 0.0958 | -0.0221 |

| Target | thermal stability z-score [1, 3] | thermal stability z-score ([1]; arsenate co-treatment: none) | thermal stability z-score [2] |
| --- | --- | --- | --- |
| PTPN9 (UniProt P43378) | -0.0496 | 0.0634 | 0.0393 |
| PTPN11 (UniProt Q06124) | 0.431 | 0.267 | -0.559 |
| PTPN12 (UniProt Q05209) | -0.407 | -0.595 | -0.087 |
| PTPN23 (UniProt Q9H3S7) | -0.214 | -0.0347 | 0.691 |
| PTPRF (UniProt P10586) | -0.381 | -0.381 | -0.656 |
| PTPRJ (UniProt Q12913) | 1.03 | -0.0729 | -0.764 |
| PTPRK (UniProt Q15262) | -1.17 | -0.25 | 0.129 |
| PTPRM (UniProt P28827) | 0.782 | 1.16 | 0.672 |
| PTPRS (UniProt Q13332) | -0.214 | -0.198 | -0.0489 |
| PTRF (UniProt Q6NZI2) | 0.213 | 0.0879 | 0.778 |
| PTRH1 (UniProt Q86Y79) | 0.0851 | 0.0188 | -0.214 |
| PTRH2 (UniProt Q9Y3E5) | -0.239 | -0.143 | -0.0653 |
| PTS (UniProt Q03393) | 0.382 | -0.301 | 0.981 |
| PTTG1 (UniProt O95997) | -1.19 | -1.5 | -1.58 |
| PTTG1IP (UniProt P53801) | -0.059 | -0.0338 | -0.2 |
| PUDP (UniProt Q08623) | 0.292 | -0.0843 | -1.3 |
| PUF60 (UniProt Q9UHX1) | 0.11 | 0.816 | 0.789 |
| PUM1 (UniProt Q14671) | -0.249 | -0.0302 | -0.174 |
| PUM2 (UniProt Q8TB72) | -0.565 | 0.382 | -0.343 |
| PUM3 (UniProt Q15397) | 0.119 | -0.0918 | 0.369 |
| PURA (UniProt Q00577) | 0.195 | -0.028 | -0.0389 |
| PURB (UniProt Q96QR8) | 0.083 | 0.15 | 0.364 |
| PUS1 (UniProt Q9Y606) | -0.761 | -0.18 | 0.257 |
| PUS3 (UniProt Q9BZE2) | 0.378 | -0.095 | 2.26 |
| PUS7 (UniProt Q96PZ0) | -0.447 | 0.26 | 0.651 |
| PUS7L (UniProt Q9H0K6) | 0.3 | 0.174 | -0.0157 |
| PVR (UniProt P15151) | -0.158 | -0.0762 | 0.0637 |
